Source: US10653691B2, “Method of promoting remyelination” (Case Western Reserve University, priority 2013, dated 2020)

Tests used:
[1] = tested on: mouse epiblast stem cell (EpiSC)-derived OPCs; test: Primary in vitro phenotypic screen of OPCs (MBP process length and intensity, high content imaging); type: cell-based; conditions: 5 μM, 72 h, 727 drugs
Protocol: For the primary screen, OPCs were treated with vehicle alone (0.05% (v/v)DMSO) as a negative control, thyroid hormone (a known OPC differentiation inducer) as a positive control, or drug dissolved in DMSO at a concentration of 5 μM. After 72 h, cells were fixed and labeled with antibodies to myelin basic protein (MBP) and the length and intensity of MBP labeled oligodendrocyte processes measured (FIG. 1A). These features were reliable indicators of alteration in cellular phenotype, as indicated by consistency and high signal to background ratio of positive and vehicle controls across all screening plates (FIG. 5D-G). […] On the basis of this analysis, we identified the 22 drugs that enhanced oligodendrocyte formation greater than five standard deviations above DMSO treatment and outperformed thyroid hormone in the measured parameters (FIG. 1B).
EpiSC-derived OPCs were seeded onto poly-D-lysine 96-well Viewplate or CellCarrier plates (PerkinElmer) coated with laminin (Sigma, L2020; 10 μgml^−1) using electronic multichannel pipetors. […] All plates for the primary screen were processed and analyzed simultaneously to eliminate variability.
For the 5 μM in vitro screen, stained plates were imaged on the Opera confocal imaging system (PerkinElmer) and a set of 24×10 fields were collected from each well, resulting in an average of 10,000 cells being scored per well. […]

ERK1/2 = test: Western blot of ERK1/2 phosphorylation in OPCs; type: cell-based, mouse; conditions: for induction of ERK1/2 phosphorylation in OPCs: OPCs treated for 1 h
Protocol: EpiSC-derived OPCs were seeded into poly-Lornithine/laminin coated six-well plates and allowed to attach for 2 h in DMEM/F12 without additional factors. Cells were treated with indicated inhibitors or DMSO for 1 h-SCH772984 (ChemieTek, […]), SB590885 (Tocris, 10 nM), LY294002 (Tocris, 10 μM), and PD0325901 (Stemgent, 1 μM). Cells were then stimulated with drug or FGF2 (R&DSystems; 20 ng ml^−1) for 1 h and then lysed in 200 μL RIPA buffer (0.15 M NaCl, 0.05M Tris, pH=8.0, 1 mM EDTA, 1% Triton X-100, 0.1% SDS, 10% glycerol, HALT protease and phosphatase inhibitor (Thermo Fisher) added just before use) and incubated on ice for 20 min. Lysates were centrifuged at 4° C. and supernatant collected. Protein concentrations were determined by Pierce BCA protein assay kit (Thermo Fisher). Equal amounts of protein were resolved in a reduced manner on NuPAGE 4-12% Bis-Tris gels (Life Technologies) and transferred onto PVDF membranes (Life Technologies). Blots were blocked in either 5% BSA (phosphoprotein) or 5% milk (non phosphoprotein). Primary antibodies were all from the same vendor (Cell Signaling) and included phospho-Erk1/2 (4370S, clone D13.14.4E; 1:2,000), ERK1/2 (9107S, clone 3A7; 1:2,000), phospho-glucocorticoid receptor (4161S; 1:1,000), and glucocorticoid receptor (12041, clone D6H2L; 1:1,000) followed by incubation with HRP-conjugated secondary antibodies and chemiluminescent enhancement by West Pico substrate (Thermo Fisher).

MOG35-55 EAE mouse model = test: MOG35-55 chronic progressive EAE model
Protocol: Immunohistochemistry was performed as previously described. In short, tissue sections or whole slices were washed three times in PBS, blocked in PBS containing Triton X-100 (0.1%) and normal donkey serum (NDS, 2% for sections and 10% for cerebellar slices) and incubated with primary antibody overnight. For MBP immunohistochemistry, the primary antibody solution consisted of 2% NDS, 2% bovine serum albumin, and 0.1% saponin. For all other antibodies, the primary antibody solution consisted of 2% NDS and 0.1% Triton X-100. Primary antibodies used included rat anti-MBP (Abcam, ab7349; 1:100), mouse anti-APC CC1 clone (Millipore, MABC200; 1:500), and rabbit anti-IBA1 (Wako Chemicals, 019-19741; 1:1,000). The tissue was then washed in PBS and incubated in secondary antibodies for […]. Secondary detection was performed with Alexa Fluor-conjugated secondary antibodies (1:500) for 1 h. Luxol fast blue staining was performed as previously described.
Samples were processed as previously described. In short, samples were osmicated, stained en bloc with uranyl acetate, and embedded in EMbed 812, an Epon-812 substitute (EMS). Sections (1 μm) were cut and stained with toluidine blue and visualized on a light microscope (Leica DM5500B). Additional thin sections were cut, carbon coated and imaged either on a JEOL JEM-1200-EX electron microscope or a T12 electron microscope (FEI).
EAE was induced by immunizing 10-week-old C57BL/6 female mice with […] injection of […] complete Freund's adjuvant emulsion (Hooke Laboratories). One hour after immunization, mice were given 100 ng of pertussis toxin by 100 μl intraperitoneal injection. A second dose of pertussis toxin was administered the next day. EAE onset was monitored daily and scored using a clinical scale where 0 represented no abnormality; 1, limp tail; 2, limp tail and hind limb weakness; 3, hind limb paralysis; 4, hind limb paralysis and forelimb weakness; and 5, moribund. […] Once mice reached peak of disease ˜day 15; clinical score=3) they were randomized into treatment groups, and drug or vehicle (DMSO in saline) was administered intraperitoneally daily for 10 days (n=12-16 mice per group). […] Experimenters were blinded to the identity of the treatments and animals were scored daily. Cumulative disease scores for each animal were calculated during the treatment period, and a two-tailed t-test compared drug—with vehicle-treated groups. The extent of recovery for each animal was calculated as the difference between the peak disease score and the score at the end of each experiment, and a two-tailed t-test was used to compare each treatment with vehicle. External validation of MOG35-55 EAE experiments (n=12 mice per group) was performed at Hooke Laboratories with experimenters blinded to the identity of the substances.

mouse OPCs = test: OPC differentiation into MBP+ oligodendrocytes; type: cell-based; conditions: 72 h, seven doses 0.01-6.7 μM
Protocol: EpiSC-derived OPCs were seeded onto poly-D-lysine 96-well Viewplate or CellCarrier plates (PerkinElmer) coated with laminin (Sigma, L2020; 10 μgml^−1) using electronic multichannel pipetors. For the primary screen, 30,000 cells were seeded per well in screening medium (DMEM/F12 supplemented with N2 (R&D Systems), B-27 (Life Technologies), neurotrophin 3 (R&D Systems; 10 ng ml^−1), cAMP (Sigma; 50 μM), IGF-1 (R&D Systems; 100 ng ml^−1), noggin (R&D Systems; 100 ngml^−1)) and allowed to attach for 2 h before addition of drug. NIH Clinical Collection I and II drugs were added to assay plates with 0.1 ml pin replicators (Molecular Devices, Genetix; X5051), resulting in a final primary screening concentration of 5 μM. Thyroid-hormone-positive controls and DMSO vehicle controls were included in each assay plate. Cells were incubated under standard conditions (37° C., 5% CO2) for 3 days and fixed with 4% paraformaldehyde (PFA) in phosphate buffered saline (PBS). Fixed plates were permeabilized with 0.1% Triton X-100 and blocked with 10% donkey serum (v/v) in PBS for 2 h. Cells were labelled with MBP antibodies (Abcam, ab7349; 1:100) for 1 h at room temperature (˜22° C.) followed by detection with Alexa Fluorconjugated secondary antibodies (1:500) for 45 min. Nuclei were visualized by DAPI staining (Sigma; 1 μgml^−). All plates for the primary screen were processed and analyzed simultaneously to eliminate variability.
For the 5 μM in vitro screen, stained plates were imaged on the Opera confocal imaging system (PerkinElmer) and a set of 24×10 fields were collected from each well, resulting in an average of 10,000 cells being scored per well. For the dose-response (6.7 μM, 5 μM, 3.3 μM, 1.7 μM, 666 nM, 500 nM, and 333 nM) in vitro assays, plates were imaged on the Operetta High Content Imaging and Analysis system (PerkinElmer) and a set of 14×20 fields captured from each well resulting in an average of 3,300 cells being scored per well. […] Each traced nucleus region was then expanded by 50% and cross-referenced with the mature myelin protein (MBP or PLP1) stain to identify oligodendrocyte nuclei, and from this the percentage of oligodendrocytes was calculated. Processes emanating from oligodendrocyte nuclei were identified using the CSIRO2 analysis module within a custom Acapella script. Maximum mean process length (denoted ‘process length’) and mean process intensity (denoted ‘process intensity’) were generated on a per well basis. For the 5 μM in vitro screen, values were calculated and normalized to 100 for thyroid hormone (positive control)-treated wells and to 0 for DMSO(vehicle)-treated wells, on a per plate basis.

Row | SMILES | hit status / activity in the primary screen (MBP process length and intensity) [1] | induction of ERK1/2 phosphorylation in OPCs (ERK1/2) | further results
1 | COc1cc2c(cc1OC)C(=O)C(CC1CCN(Cc3ccccc3)CC1)C2 (centres unmarked) [Donepezil] | identified in the primary screen |  | 
2 | O=C(NOC[C@H](O)CO)c1ccc(F)c(F)c1Nc1ccc(I)cc1F [PD0325901] |  |  | block of miconazole-induced ERK1/2 phosphorylation (ERK1/2; OPCs, inhibitor 1 μM for 1 h, then miconazole): blocked the ability of miconazole to induce ERK1/2 phosphorylation
3 | CN1[C@@H]2CC[C@H]1C[C@@H](OC(c1ccccc1)c1ccccc1)C2 [benztropine] | one of the top 22 drugs | did not induce ERK1/2 phosphorylation | areas of myelin disruption in the white matter (luxol fast blue, MBP immunohistochemistry) (MOG35-55 EAE mouse model; cervical spinal cords): decrease in areas of myelin disruption in the white matter; functional improvement (disease score) (MOG35-55 EAE mouse model; daily i.p. for 10 days from peak of disease, miconazole 10 mg/kg, clobetasol 2 mg/kg, benztropine 10 mg/kg): functional improvement, but to a lesser extent than miconazole and clobetasol
4 | C[C@@H](c1ncncc1F)[C@](O)(Cn1cncn1)c1ccc(F)cc1F [voriconazole] |  | failed to induce changes in ERK1/2 phosphorylation | differentiation of OPCs into oligodendrocytes (mouse OPCs): did not promote the differentiation of OPCs into oligodendrocytes
